Residues, ends and D or L forms follow the SMILES beside them.
Row | melting point | SMILES
1 | 110 to 112 °C | O=C(NCC1CCCC1)c1ccc2[nH]ccc2c1
2 | 66.5 to 68.5 °C | CC(C)(CCl)c1cc(Cl)nnc1Cl
3 | 259 °C | CN(C)Cc1ccccc1-c1ccc(N2CCc3c(C(F)(F)F)nn(-c4cccc(C(N)=O)c4)c3C2=O)cc1
4 | 95 to 99 °C | CNC(=O)[C@H](Cc1ccccc1)NC(=O)[C@H](CC(C)C)N[C@H](CCN(C(=O)OCc1ccccc1)C(=O)OCc1ccccc1)C(=O)OC(C)(C)C
5 | 177 to 179 °C | O=c1[nH]c2ccccc2cc1CN1CC=C(CCc2ccccc2)CC1
6 | 141 °C | Cc1cc(N)c([N+](=O)[O-])cc1NCCO
7 | 110 to 112 °C | COC(=O)C(=NO)c1cnsc1
8 | 103 to 108 °C | C=C1CCC2C3CCC4CC(O)C(OCC)CC4(C)C3C(=O)CC12C (stereo not given)
9 | 156 to 158 °C | N#Cc1ccc2oc(C(=O)CBr)cc2c1
10 | 143 to 144 °C | O=C(N[C@@H]1CC(=O)N(Cc2ccccc2)C1=O)OCc1ccccc1
11 | 101 to 104 °C | CCOC(=O)c1nccc(N)n1
12 | 196 to 199 °C | COC(=O)C(Cc1ccccc1)NC(=O)C(CC(=O)O)NC(=O)C(N)CO (stereo not drawn) (H-Ser-Asp-Phe-OMe; configuration not given here)
13 | 115 °C | Oc1cccc2cc3ccccc3nc12
14 | 170 to 171 °C | N#Cc1cscc1C#N
15 | 168 °C | CC(=O)NC(=O)c1cc([N+](=O)[O-])cnc1C(Br)Br
16 | 190 to 193 °C | CCCCc1nc2c(N)nc3ccccc3c2n1CCCCS(=O)(=O)c1ccc(F)cc1F
17 | 152 to 154 °C | CCCc1c(OCCCCCc2c(Cl)c(Cl)cc(OC)c2OC)ccc(C(=O)O)c1O
18 | 189 °C | O=C(O)c1ccc(NCc2cccc([N+](=O)[O-])c2)cc1O
19 | 63 to 67 °C | S=C(NCCCCN(Cc1ccc(Cl)c(Cl)c1)c1ccc(Br)cn1)NCCCc1c[nH]cn1

Row | melting point | SMILES
20 | 227 to 230 °C | O=C(NC(=O)c1c(Cl)cccc1Cl)Nc1ccc(F)c(C(F)(F)F)c1Cl
21 | 164 to 166 °C | O=C(N[C@H]1CCCNC1=O)c1cccc(F)c1
22 | 194 °C | N#CSCCON=C(C(=O)O)c1csc(NC(c2ccccc2)(c2ccccc2)c2ccccc2)n1
23 | 181 °C | CCc1nc2c(C)cc(C)nc2n1C1CCc2cc(-c3ccccc3-c3nnn[nH]3)ccc21 (stereo not given)
24 | 253 °C | O=C1c2ccccc2-c2nc3ccc(O)cc3c(Cl)c21
25 | 112 to 114 °C | CCCCCCCN(C[C@H]1CC[C@H](CN(CCCCCCC)C(=O)Nc2ccc(N(C)C)cc2)CC1)C(=O)Nc1ccc(N(C)C)cc1
26 | 150 to 152 °C | Cn1nc(C(F)(F)C(F)(F)F)c(C(F)(F)F)c1-n1cc(-c2ccc(Cl)c(C(=O)NC3CC3)c2)nn1
27 | 109 to 114 °C | Nc1ccnn1-c1c(Cl)cc(C(F)(F)F)c(Cl)c1Cl
28 | 130 to 131 °C | O=[N+]([O-])c1ccc(NCCO)nc1NCCO
29 | 192 to 194 °C | Cc1nnc(NC(=O)c2sccc2S(=O)(=O)Nc2onc(C)c2Cl)s1
30 | 261 to 263 °C | Oc1ccc(-c2ncc3ncc(-c4ccco4)cc3n2)cc1
31 | 174 °C | O=C(Nc1ccc(N2CCCC2=O)cc1)OCc1ccccc1
32 | 134 to 135 °C | NC(=O)N(O)CCOc1ccc2c(c1)CCN(CCCc1ccccc1)S2(=O)=O
33 | 112 to 114 °C | COc1ccc(S(=O)(=O)n2ccc3ccnc(-c4ccc(N(C)C)cc4)c32)cc1
34 | 84 °C | BrCc1nc(-c2ccccc2)cc2ccccc12
35 | 164 to 166 °C | CC(=O)Nc1ccc(C(C)=C(Cl)Cl)cc1
36 | 152 to 153 °C | Cc1ccc(N2N=C3c4ccncc4CCC3CC2=O)cc1 (stereo not given)
37 | 131 to 132 °C | COc1ccnc(CCC(=O)O)c1
38 | 126 to 127 °C | COCCOc1ccc(/C=C(\C)C(=O)O)c(Oc2ncc(Cl)cc2Cl)c1

Row | SMILES | melting point
39 | CC(c1ccc(O)cc1)(c1ccc(O)cc1)c1ccc(-c2ccccc2)cc1 | 182 to 183 °C
40 | CC1(C)CC(C)(c2ccc(O)cc2)c2cc(O)ccc21 (stereo not given) | 202 °C

Reference: a melting point compilation (Tetko et al.; mined from patent text by program, amines drawn as free bases though some values may be those of a salt)
